This experiment can be described thus: Inhibition of influenza A virus neuraminidase using 2-(4-methylumbelliferyl)-a-D-acetylneuraminic acid as substrate incubated for 30 mins by fluorescence based analysis.

Structures are written as SMILES.

Regarding `C=C1C[C@@H]2[C@@]3(C)CCC(=O)C(C)(C)[C@@H]3C(=O)C[C@@]2(C)[C@@]2(C(=O)OC)C(=O)[C@](C)(O)C(=O)[C@@]12C`, half-maximal inhibition (IC50) was put at 18 nM.

These data come from BindingDB's records for PubMed 33032085 (Guangzhou University of Chinese Medicine, 2021).
